For 22 molecules, IC50 results are on record in patent US20240140957A1, “BRIDGED COMPOUNDS AS KRAS G12D INHIBITOR AND DEGRADER AND THE USE THEREOF” (BeiGene Switzerland GmbH, priority 2021, published 2024).

Chain of GDP-loaded KRAS G12D (P01116 1-188 isoform P01116-2 G12D): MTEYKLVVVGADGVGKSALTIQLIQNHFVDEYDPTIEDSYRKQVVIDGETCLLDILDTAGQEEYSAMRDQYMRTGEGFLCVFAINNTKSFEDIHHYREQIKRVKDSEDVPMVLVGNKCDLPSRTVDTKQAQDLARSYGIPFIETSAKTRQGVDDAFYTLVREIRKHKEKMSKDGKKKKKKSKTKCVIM

The test concerns the target GDP-loaded KRAS G12D (Homo sapiens, UniProt P01116, G12D). The experiment in a line: KRAS G12D Probe Displacement Assay. The conditions noted are these: KRAS G12D 0.5 nM, biotinylated probe 2 4 nM; Table 6 letters; read-out: KRAS G12D Probe Displacement Assay IC50 (class). The class given is binding.
One may read the IC50 as the concentration that gives 50% inhibition. On to `Nc1nc2c(-c3c(C(F)(F)F)cc4c(N5CC6CCCC(C5)N6)nc(OC[C@@]56CCCN5C[C@H](F)C6)nc4c3F)ccc(F)c2s1` [Example E90, 4-(4-(3,9-diazabicyclo[3.3.1]nonan-3-yl)-8-fluoro-2-(((2R,7aS)-2-fluorotetrahydro-1H-pyrrolizin-7a(5H)-yl)methoxy)-6-(trifluoromethyl)quinazolin-7-yl)-7-fluorobenzo[d]thiazol-2-amine], for which the IC50 was less than 50 nM.
In the case of `Nc1nc2c(-c3c(C4CC4(F)F)cc4c(N5CC6CCC(C5)N6)nc(OC[C@@]56CCCN5C[C@H](F)C6)nc4c3F)ccc(F)c2s1` (stereo partly shown) [Example E91, 4-(4-(3,8-diazabicyclo[3.2.1]octan-3-yl)-6-(2,2-difluorocyclopropyl)-8-fluoro-2-((2-fluorotetrahydro-1H-pyrrolizin-7a(5H)-yl)methoxy)quinazolin-7-yl)-7-fluorobenzo[d]thiazol-2-amine] it was less than 50 nM; in that of `Cc1cc(N)nc(-c2c(SC(F)(F)F)cc3c(N4CC5CCC(C4)N5)nc(OC[C@@]45CCCN4C[C@H](F)C5)nc3c2F)c1C(F)(F)F` [Example E92, 6-(4-(3,8-diazabicyclo[3.2.1]octan-3-yl)-8-fluoro-2-(((2R,7aS)-2-fluorotetrahydro-1H-pyrrolizin-7a(5H)-yl)methoxy)-6-((trifluoromethyl)thio)quinazolin-7-yl)-4-methyl-5-(trifluoromethyl)pyridin-2-amine], less than 50 nM; in that of `Nc1nc2c(-c3c(SC(F)(F)F)cc4c(N5CC6CCC(C5)N6)nc(OC[C@@]56CCCN5C[C@H](F)C6)nc4c3F)ccc(F)c2s1` [Example E94, 4-(4-(3,8-diazabicyclo[3.2.1]octan-3-yl)-8-fluoro-2-(((2R,7aS)-2-fluorotetrahydro-1H-pyrrolizin-7a(5H)-yl)methoxy)-6-((trifluoromethyl)thio)quinazolin-7-yl)-7-fluorobenzo[d]thiazol-2-amine], less than 50 nM.
In the case of `Nc1nc2c(-c3c(C(F)(F)F)cc4c(N5[C@@H]6CC[C@H]5C(NCCC(F)F)C6)nc(OC[C@@]56CCCN5C[C@H](F)C6)nc4c3F)ccc(F)c2s1` (stereo partly drawn) [Example E95, 4-(4-((1S,4R)-2-((3,3-difluoropropyl)amino)-7-azabicyclo [2.2.1]heptan-7-yl)-8-fluoro-2-(((2R,7As)-2-fluorotetrahydro-1H-pyrrolizin-7a(5H)-yl)methoxy)-6-(trifluoromethyl)quinazolin-7-yl)-7-fluorobenzo[d]thiazol-2-amine] it was less than 50 nM; in that of `Cc1cc(N)nc(-c2c(Cl)cc3c(N4C5CCC4CNC5)nc(OC[C@@]45CCCN4C[C@H](F)C5)nc3c2F)c1C(F)(F)F` [Example E96], less than 50 nM.
For `COCCCNC1C[C@H]2CC[C@@H]1N2c1nc(OC[C@@]23CCCN2C[C@H](F)C3)nc2c(F)c(-c3ccc(F)c4sc(N)nc34)c(C(F)(F)F)cc12` (stereo partly drawn) [Example E97, 7-fluoro-4-(8-fluoro-2-(((2R,7aS)-2-fluorotetrahydro-1H-pyrrolizin-7a(5H)-yl)methoxy)-4-((1S,4R)-2-((3-methoxypropyl)amino)-7-azabicyclo [2.2.1]heptan-7-yl)-6-(trifluoromethyl)quinazolin-7-yl) benzo[d]thiazol-2-amine], the IC50 is less than 50 nM.
In the case of `Nc1nc2c(-c3c(C(F)(F)F)cc4c(N5C6CNCC5COC6)nc(OC[C@@]56CCCN5C[C@H](F)C6)nc4c3F)ccc(F)c2s1` [Example E98] it was less than 50 nM; in that of `CN(C)C(=O)CCNC1C[C@H]2CC[C@@H]1N2c1nc(OC[C@@]23CCCN2C[C@H](F)C3)nc2c(F)c(-c3ccc(F)c4sc(N)nc34)c(C(F)(F)F)cc12` (stereo partly drawn) [Example E99, 3-(((1S,4R)-7-(7-(2-amino-7-fluorobenzo[d]thiazol-4-yl)-8-fluoro-2-(((2R,7aS)-2-fluorotetrahydro-1H-pyrrolizin-7a(5H)-yl)methoxy)-6-(trifluoromethyl)quinazolin-4-yl)-7-azabicyclo [2.2.1]heptan-2-yl)amino)-N,N-dimethyl propanamide], less than 50 nM; in that of `Cc1cc(N)nc(-c2c(C(F)F)cc3c(N4CC5CCC(C4)N5)nc(OC[C@@]45CCCN4C[C@H](F)C5)nc3c2F)c1C(F)(F)F` [Example E100, 6-(4-(3,8-diazabicyclo[3.2.1]octan-3-yl)-6-(difluoromethyl)-8-fluoro-2-(((2R,7aS)-2-fluorotetrahydro-1H-pyrrolizin-7a(5H)-yl)methoxy)quinazolin-7-yl)-4-methyl-5-(trifluoromethyl)pyridin-2-amine], less than 50 nM.
The figure for `Nc1nc2c(-c3c(C(F)(F)F)cc4c(N5C6CCC5CNC6)nc(OC[C@@]56CCCN5C[C@H](F)C6)nc4c3Cl)ccc(F)c2s1` [Example E101, 4-(4-(3,8-diazabicyclo[3.2.1]octan-8-yl)-8-chloro-2-(((2R,7aS)-2-fluorotetrahydro-1H-pyrrolizin-7a(5H)-yl)methoxy)-6-(trifluoromethyl)quinazolin-7-yl)-7-fluorobenzo[d]thiazol-2-amine] is less than 50 nM.
In the case of `Nc1cc(Cl)c(C(F)(F)F)c(-c2c(Cl)cc3c(N4C5CCC4CNC5)nc(OC[C@@]45CCCN4C[C@H](F)C5)nc3c2F)n1` [Example E102, 6-(4-(3,8-diazabicyclo[3.2.1]octan-8-yl)-6-chloro-8-fluoro-2-(((2R,7aS)-2-fluorotetrahydro-1H-pyrrolizin-7a(5H)-yl)methoxy)quinazolin-7-yl)-4-chloro-5-(trifluoromethyl)pyridin-2-amine] it was less than 50 nM.
Consider `CN1C[C@H](F)C[C@]1(C)COc1nc(N2CC3CCC(C2)N3)c2cc(C(F)(F)F)c(-c3ccc(F)c4sc(N)nc34)c(F)c2n1` [Example E103, 4-(4-(3,8-diazabicyclo[3.2.1]octan-3-yl)-8-fluoro-2-(((2R,4R)-4-fluoro-1,2-dimethylpyrrolidin-2-yl)methoxy)-6-(trifluoromethyl)quinazolin-7-yl)-7-fluorobenzo [d]thiazol-2-amine], for which the IC50 was less than 50 nM.
In the case of `N#Cc1c(N)sc2c(F)ccc(-c3c(C(F)(F)F)cc4c(N5CC6CCC(C5)N6)nc(OC[C@@]56CCCN5C[C@H](F)C6)nc4c3F)c12` [Example E104, 4-(4-(3,8-diazabicyclo[3.2.1]octan-3-yl)-8-fluoro-2-(((2R,7aS)-2-fluorotetrahydro-1H-pyrrolizin-7a(5H)-yl)methoxy)-6-(trifluoromethyl)quinazolin-7-yl)-2-amino-7-fluorobenzo[b]thiophene-3-carbonitrile] it was less than 50 nM; in that of `Oc1cc(Cl)c(C(F)(F)F)c(-c2c(Cl)cc3c(N4CC5CCC(C4)N5)nc(OC[C@@]45CCCN4C[C@H](F)C5)nc3c2F)c1` [Example E105, 3-(4-(3,8-diazabicyclo[3.2.1]octan-3-yl)-6-chloro-8-fluoro-2-(((2R,7aS)-2-fluorotetrahydro-1H-pyrrolizin-7a(5H)-yl)methoxy)quinazolin-7-yl)-5-chloro-4-(trifluoromethyl)phenol], less than 50 nM.
Take `N#Cc1c(N)sc2c(F)ccc(-c3c(Cl)cc4c(N5CC6CCC(C5)N6)nc(OC[C@@]56CCCN5C[C@H](F)C6)nc4c3F)c12` [Example E106, 4-(4-(3,8-diazabicyclo[3.2.1]octan-3-yl)-6-chloro-8-fluoro-2-(((2R,7aS)-2-fluorotetrahydro-1H-pyrrolizin-7a(5H)-yl)methoxy)quinazolin-7-yl)-2-amino-7-fluorobenzo[b]thiophene-3-carbonitrile]: the IC50 is less than 50 nM.
In the case of `Nc1cc(Cl)c(C(F)(F)F)c(-c2c(Cl)cc3c(N4C5CNCC4COC5)nc(OC[C@@]45CCCN4C[C@H](F)C5)nc3c2F)n1` [Example E107, 6-(4-(3-oxa-7,9-diazabicyclo[3.3.1]nonan-9-yl)-6-chloro-8-fluoro-2-(((2R,7aS)-2-fluorotetrahydro-1H-pyrrolizin-7a(5H)-yl)methoxy)quinazolin-7-yl)-4-chloro-5-(trifluoromethyl)pyridin-2-amine] it was less than 50 nM.
In the case of `C#Cc1cc(N)nc(-c2c(Cl)cc3c(N4CC5CCC(C4)N5)nc(OC[C@@]45CCCN4C[C@H](F)C5)nc3c2F)c1C(F)(F)F` [Example E108, 6-(4-(3,8-diazabicyclo[3.2.1]octan-3-yl)-6-chloro-8-fluoro-2-(((2R,7aS)-2-fluorotetrahydro-1H-pyrrolizin-7a(5H)-yl)methoxy)quinazolin-7-yl)-4-ethynyl-5-(trifluoromethyl)pyridin-2-aminp] it was less than 50 nM; in that of `N#Cc1cc(N)nc(-c2c(Cl)cc3c(N4CC5CCC(C4)N5)nc(OC[C@@]45CCCN4C[C@H](F)C5)nc3c2F)c1C(F)(F)F` [Example E109, 2-(4-(3,8-diazabicyclo[3.2.1]octan-3-yl)-6-chloro-8-fluoro-2-(((2R,7aS)-2-fluorotetrahydro-1H-pyrrolizin-7a(5H)-yl)methoxy)quinazolin-7-yl)-6-amino-3-(trifluoromethyl)isonicotinonitrile], less than 50 nM; in that of `Oc1cc(F)c(C(F)(F)F)c(-c2c(F)cc3c(N4CC5CCC(C4)N5)nc(OC[C@@]45CCCN4C[C@H](F)C5)nc3c2F)c1` [Example E110, 3-(4-(3,8-diazabicyclo[3.2.1]octan-3-yl)-6,8-difluoro-2-(((2R,7aS)-2-fluorotetrahydro-1H-pyrrolizin-7a(5H)-yl)methoxy)quinazolin-7-yl)-5-fluoro-4-(trifluoromethyl)phenol], less than 50 nM.
The figure for `CN1C[C@H](F)C[C@H]1COc1nc(N2CC3CCC(C2)N3)c2cc(C(F)(F)F)c(-c3ccc(F)c4sc(N)c(C#N)c34)c(F)c2n1` [Example E111, 4-(4-(3,8-diazabicyclo[3.2.1]octan-3-yl)-8-fluoro-2-(((2S,4R)-4-fluoro-1-methylpyrrolidin-2-yl)methoxy)-6-(trifluoromethyl)quinazolin-7-yl)-2-amino-7-fluoro benzo[b]thiophene-3-carbonitrile] is less than 50 nM.
As for `Cc1nc(N)nc(-c2c(Cl)cc3c(N4CC5CCC(C4)N5)nc(OC[C@@]45CCCN4C[C@H](F)C5)nc3c2F)c1C(F)(F)F` [Example E112, 4-(4-(3,8-diazabicyclo[3.2.1]octan-3-yl)-6-chloro-8-fluoro-2-(((2R,7aS)-2-fluorotetrahydro-1H-pyrrolizin-7a(5H)-yl)methoxy)quinazolin-7-yl)-6-methyl-5-(trifluoromethyl)pyrimidin-2-amine], the half-maximal inhibitory concentration (IC50) was less than 50 nM.
